Bridges are numbered along the chain shown (N, C = ends). Where no end group is shown, it is not given here. [ ]: non-standard residue; d: D form. pGlu = O=C1CC[C@@H](C(=O)O)N1
How the values were obtained:
Test in all cases: Minimum inhibitory concentration, 96 well microtitre plate
Type in all cases: cell-based
[1] = tested on: Pseudomonas aeruginosa (27853); details: Pseudomonas aeruginosa (ATCC 27853); 1/4 strength TSB, 1×10^5 /ml
Experimental: (§1) Antimicrobial activity was determined during the purification process. Approximately 2.5 ml fractions from the P-30 gel filtration column were assessed after drawing fractions and taking an aliquot of the fraction and spotting that fraction on a radial diffusion plate as described by Zasloff, M. (Proc. Natl. Acad. Sci USA 84: 5449-5453, 1987) against E. coli D31 or fungal pathogens such as Candida albicans, Candida tropicalis, or Staphylococcus aureus. (See also, Zasloff et al., Proc. Natl. Acad. Sci. USA 85: 910-913, 1988.) (FIGS. 1B and 1C.) Briefly, the minimal inhibitory concentrations (MIC's) were assessed using a 96 well microtitre plate (Corning Glass Works, Corning, N.Y.). Microorganisms were grown in log phase at 1/4 strength tryptics soy broth (TSB) at a density of 1×10^5 /ml. The assays used 1/4 strength TSB. For each organism, dilutions of peptide were made ranging from >500 μg/ml to 1 μg/ml using 1/4 strength TSB as a dilution buffer. Zones of bacterial growth or lack of growth were assessed under the microscope. MIC's were calculated based the lowest concentration of peptide that inhibited growth.

[2] = tested on: Staphylococcus aureus (29213); details: Staphylococcus aureus (ATCC 29213); 1/4 strength TSB, 1×10^5 /ml
Experimental: as §1

[3] = tested on: Candida tropicalis (13803); details: Candida tropicalis (ATCC 13803); 1/4 strength TSB, 1×10^5 /ml
Experimental: as §1

[4] = tested on: Escherichia coli (D31); details: 1/4 strength TSB, 1×10^5 /ml
Experimental: as §1

[5] = tested on: Candida albicans (14053); details: Candida albicans (ATCC 14053); 1/4 strength TSB, 1×10^5 /ml
Experimental: as §1

Substance	Minimum Inhibitory Concentration [1]	Minimum Inhibitory Concentration [2]	Minimum Inhibitory Concentration [3]	Minimum Inhibitory Concentration [4]	Minimum Inhibitory Concentration [5]
Magainin II-amide	13 to 25 µg/mL	50 to 100 µg/mL	13 to 25 µg/mL	13 to 25 µg/mL	50 to 100 µg/mL
[pGlu]GVRNSQSCRRNKGICVPIRCPGSMRQIGTCLGAQVKCCRRK (disulfide 9-38, 16-31, 21-39) [LAP, lingual antimicrobial peptide]	63 to 125 µg/mL	63 to 125 µg/mL	16 to 32 µg/mL	16 to 32 µg/mL	32 to 63 µg/mL
